The source of these data is patent US20250163052A1, “cGAS INHIBITORS AND USES THEREOF” (Cornell University, priority 2022, published 2025).

By IC50 is commonly meant the concentration that inhibits the measured activity by half.

One data set concerns the target m-cGAS (Mus musculus, UniProt Q8C6L5). The data set is described as follows: Cell-free mouse cGAS enzyme inhibition assay (ATP depletion, Kinase-Glo Max). It is filed as biochemical. As to conditions: mouse cGAS.
Data set [1] concerns P301S mice. Kind of data set: Novel object recognition test in P301S mice fed TDI-6570 diet. Type of data set: in vivo, mouse. As to conditions: 150 mg/kg diet for three months. The source says:
(§1) P301S transgenic mice (https://www.jax.org/strain/008169) were crossed with cGas knockout mice (https://www.jax.org/strain/026554) to generate littermate P301S cGas+/+ mice, P301S cGas+/− and littermate P301S cGas−/− mice, as well as non-transgenic littermates. Mice of both sexes were used behavioral, histological and biochemical analyses. Mice underwent behavioral testing at 7 to 8 months of age and had not been used for any other experiments. At 9 to 10 months of age, the same mice were used for pathology and RNA-seq studies. For TDI-6570 in vivo treatment, P301S and non-transgenic littermate mice at 6-7 months were used for diet experiments and were assayed for behavior and histology at 9-10 months. Mice were housed under specific pathogen-free conditions under a 12 h light-dark cycle and all mouse protocols were approved by the Institutional Animal Care and Use Committee, University of California, San Francisco.
For experiments involving TDI-6570 treatment, male P301S and Non-transgenic littermates fed with TDI-6570 or control diet were used.
Mice were habituated to opaque open field arenas (40×40 cm) for two 10-minute trials spaced on the two days leading up to object recognition. […] An experimenter blind to the groups manually scored the time mice spent exploring each object. Preference was calculated based on the total time an individual mouse spent exploring both objects. […]

Data set [2] relates to P301S mice. The data set is described as follows: Immunofluorescent staining of hippocampal synapses (PSD-95, vGAT) in P301S mice. Type of data set: in vivo, mouse. The conditions noted are these: hippocampal CA1, 150 mg/kg diet for three months.
Text: as §1
Hemibrains from transcardially perfused mice were placed in 4% paraformaldehyde for 48 h, followed by 30% sucrose PBS for 48 h at 4° C. Sections were cut coronally at 40 μm using a freezing microtome (Leica) and placed in cryoprotective medium at −20° C. until use. 8-10 free floating sections per mouse. […] Quantification was done using ImageJ software (NIH) using percentage area based on thresholding determined using negative and positive controls. […]

Data set [3] is described as follows: Metabolic stability in mouse liver microsomes. Background: Liver microsomes are vesicles of endoplasmic reticulum, rich in cytochrome P450 enzymes.

Sequence of m-cGAS (Q8C6L5 whole entry): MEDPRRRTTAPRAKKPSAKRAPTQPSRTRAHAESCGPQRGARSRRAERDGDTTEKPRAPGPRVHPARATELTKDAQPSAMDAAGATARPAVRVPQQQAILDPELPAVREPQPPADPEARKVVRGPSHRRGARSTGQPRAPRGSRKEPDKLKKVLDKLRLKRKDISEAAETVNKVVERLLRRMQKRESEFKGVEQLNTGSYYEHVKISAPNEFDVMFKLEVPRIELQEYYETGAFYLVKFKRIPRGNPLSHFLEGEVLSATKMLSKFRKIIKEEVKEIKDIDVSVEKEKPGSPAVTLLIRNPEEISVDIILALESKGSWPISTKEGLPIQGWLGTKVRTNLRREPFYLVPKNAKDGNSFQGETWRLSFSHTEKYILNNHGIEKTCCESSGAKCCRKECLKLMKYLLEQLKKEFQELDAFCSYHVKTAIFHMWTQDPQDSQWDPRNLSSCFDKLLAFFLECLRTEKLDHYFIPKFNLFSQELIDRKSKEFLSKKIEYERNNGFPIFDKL

Take `Cn1c2c(c3ccc(Cl)c(F)c31)CN(C(=O)CO)CC2` [TDI-6570, reference compound]: the IC50 at m-cGAS came to 12.8 nM. The “Defect in recognizing the novel object (novel object recognition test)” value with P301S mice [1] is “rescued”. In the data set with P301S mice [2], the “P301S-dependent excitatory synapse loss (PSD-95)” value was “rescued” and the “P301S-dependent inhibitory synapse loss (vGAT)” value is listed as “rescued”. Besides, the “Remaining (NCF = 60 min)” value in data set [3] (mouse liver microsomes, 60 min, no co-factor (no NADPH)) is on record as 100.0%. Further, the “Remaining (T = 60 min)” value in data set [3] (mouse liver microsomes, 60 min with NADPH) turned out to be 0.0%. The “CLint(liver)” value in data set [3] (mouse liver microsomes, scaled from CLint(mic)) is listed as 997.5 mL/min/kg. Further, in data set [3] (mouse, liver microsomes), the “CLint(mic)” value was found to be 251.9 µL/min/mg and the “T½” value stood at 5.5 min.
